Measurements: patent US20080075796A1, “Compositions and Methods for Controlling Insects” (TyraTech, Inc., priority 2003, published 2008)
“And” between values parts separate entries of the source, which are not always exact repeats. Identical values can stand only once.

How the values were obtained:
[1] = tested on: farm ants; assay: Repellent effect on farm ants (treated filter paper); format: in vivo; settings: for repellency: in words
Description: Adult insect are randomly selected for testing the repellent effect of compositions and are not individually marked. About 5 insects per replicate are used. About 3 replicates are used for each treatment. Untreated control tests are included with only solvent (acetone) application to an equal sized population/replications, held under identical conditions. A filter paper (about 80 cm^2) is treated with the composition (about 100 mg in […] acetone). After about 3 min of air drying, the filter paper is placed in a dish and repellency against insects is performed. Insects are released to the dish, one insect at a time at the far end of the dish. Using one or more stopwatches, the time spent on either the filter paper or the untreated surface of the dish is recorded up to about 300 seconds. Repellency ratio (RR) is calculated as follows: RR=[(time on control surface−time on treated surface)/total time of test].
The repellent effect of various plant essential oils is tested by treating a filter paper with the test oils. After about five minutes at room temperature, the paper is placed in a dish and ants are introduced one at a time. […] Oils are tested alone. Additionally, oils are mixed to form compositions, which are then tested.

[2] = tested on: Drosophila melanogaster Or43a olfactory receptor, SEQ ID NO: 4; assay: Interaction of plant essential oils with Or43a receptor binding site (3H-tyramine); settings: membranes, FIGS. 16, 17, 19-21
Description: (§1) Total RNA is prepared from the head and antenna of wild type Drosophila melanogaster using Trizol Reagent (Invitrogen). They are homogenized in the Trizol using a motor driven teflon pestle and glass homogenizer. RNA is then prepared as per the manufacturer's instructions and includes removal of proteoglycans and polysaccharides by precipitation. The total RNA is reverse transcribed using oligo-dT as a primer and MuLV reverse transcriptase (Applied Biosystems). […] The Sense oligonucleotides contain Not I sites and the antisense oligonucleotides contain Sac II sites. Both restriction sites are indicated by underlined nucleotide. […] For PCR amplification of Or83b, Vent polymerase (New England Biolabs) is used with the following conditions: about 95° C., about 5 min for about 1 cycle; about 95° C., about 30 sec; and about 70° C., about 90 sec for about 40 cycles; and about 70° C., about 10 min for about 1 cycle. For PCR amplification of Or43a, the Failsafe PCR premix selection kit (Epicentre Technologies) is used with the following conditions: about 95° C., about 5 mill for about 1 cycle; about 95° C., about 30 sec; about 60° C., about 30 sec and about 70° C., about 90 sec for about 50 cycles; and about 70° C., about 10 min for about 1 cycle. […] The PCR products are digested with Sac II and Not I, gel purified and ligated into pAC 5.1/N5 His B (Invitrogen). Inserts are sequenced on both strands by automated fluorescent sequencing (Vanderbilt Cancer Center).
(§2) To address whether Or83b receptor and Or43a receptor contain a specific binding site for tyramine, membranes expressing Or83b receptor or Or43a receptor are prepared from cells expressing either receptor, as described above, and used for competitive binding with ^3H-tyramine. The binding assay protocol is exactly as described for cells expressing TyrR, as described above.
(§3) The cells expressing one of the olfactory receptors are used to investigate the interaction of plant essential oils with these receptors and the signaling cascade downstream of each receptor.
(§4) For the binding activity, membranes are prepared from each cell model and used to investigate the interaction of plant essential oil with the receptor binding site.

[3] = tested on: Or83b and Or43a receptors; assay: Interaction of plant essential oils with olfactory receptor binding site (membranes, ^3H-tyramine); set-up: species or system Drosophila melanogaster; settings: membranes incubated with ^3H-tyramine
Description: as §3, §4

[4] = target: T1, Or43a receptor (Drosophila melanogaster, UniProt P81917, L154V); assay: Intracellular Ca^2+ mobilization in Schneider cells expressing Or43a receptor; format: cell-based; settings: before vs approximately 150 seconds after treatment
T1 construct: His (from vector pAc5.1/V5-His B) (C); expressed in transfected cells
Description: Intracellular calcium ion concentrations ([Ca^2+]i) are measured by using the acetoxymethyl (AM) ester of the fluorescent indicator fura-2 (Enan, et al., Biochem. Pharmacol vol 51, 447-454). In this study, cells expressing tyramine receptor are grown under standard conditions. A cell suspension is prepared in assay buffer (140 mM NaCL, 10 mM HEPES, 10 mM glucose, 5 mM KCl, 1 mM CaCl2, 1 mM MgCl2) and cell number adjusted to about 2×10^6 cells per ml. Briefly, about 1.0 ml cell suspension (about 2×10^6 cells) is incubated with about 5 μM Fura 2/AM for about 30 min at about 28° C. After incubation, the cells are pelleted at about 3700 rpm for about 10 sec at room temperature and then resuspended in about 1.5 ml assay buffer. [Ca^2+]i changes are analyzed in spectrofluorometer in the presence and absence of test chemicals. Excitation wave lengths are about 340 nm (generated by Ca^2+-bound fura-2) and about 380 nm (corresponding to Ca^2+-free fura-2). The fluorescence intensity is monitored at an emission wave length of about 510 nm. No absorbance of fluorescence artifacts are observed with any of the compounds used. The ratio of about 340/380 nm is calculated and plotted as a function of time.
Intracellular Ca^2+ levels are measured using the method described above in Example 3.
Changes in intracellular Ca^2+ levels are calculated based on the difference between the 340/380 fluorescence ratios before and after approximately 150 seconds of the treatment.

[5] = tested on: Drosophila melanogaster Or83b olfactory receptor, SEQ ID NO: 6; assay: Interaction of plant essential oils with Or83b receptor binding site (3H-tyramine); settings: membranes, FIGS. 16, 18-21
Description: as §1, §2, §3, §4

[6] = Day 0, test up to about 300 seconds
[7] = Day 0, time on treated surface of up to about 300 seconds

T1 sequence (P81917 whole entry L154V): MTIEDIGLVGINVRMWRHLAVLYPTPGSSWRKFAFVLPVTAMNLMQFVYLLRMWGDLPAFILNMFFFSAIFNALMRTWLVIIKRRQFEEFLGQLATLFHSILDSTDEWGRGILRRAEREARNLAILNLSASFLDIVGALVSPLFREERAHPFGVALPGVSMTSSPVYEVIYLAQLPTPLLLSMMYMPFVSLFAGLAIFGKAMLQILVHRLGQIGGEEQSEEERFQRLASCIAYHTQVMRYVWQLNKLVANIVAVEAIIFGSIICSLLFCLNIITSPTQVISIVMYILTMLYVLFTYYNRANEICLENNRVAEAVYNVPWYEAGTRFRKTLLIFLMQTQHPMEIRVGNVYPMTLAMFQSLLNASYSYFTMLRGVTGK

Cc1ccc(C(C)C)cc1O [carvacrol]
repellency [1]: display repellency
interaction with the olfactory receptor [2]: interact
interaction with the olfactory receptors [3]: interact with the olfactory receptors
change in intracellular Ca^2+ levels (340/380 fluorescence ratio) [4]: calcium mobilization
interaction with the olfactory receptor [5]: interact

C=C(C)[C@H]1CC=C(C)C(=O)C1 [d-carvone]
change in intracellular Ca^2+ levels (340/380 fluorescence ratio) [4]: calcium mobilization

C=C(C)[C@H]1CC=C(C)CC1 [d-limonene]
Repellency %, R % ([1]; Day 0): 62.9%
sec. on T surface [1, 6]: 55.7 s
sec. on T surface [1, 7]: 55.7 s
sec. on T surface ([1]; Day 1): 136.2 s and 136.4 s and 133.6 s
sec. on T surface ([1]; Day 1, test up to about 300 seconds): 136.2 s and 136.4 s and 133.6 s
interaction with the olfactory receptor [2]: interact
interaction with the olfactory receptors [3]: interact with the olfactory receptors
change in intracellular Ca^2+ levels (340/380 fluorescence ratio) [4]: calcium mobilization
interaction with the olfactory receptor [5]: interact

CCOC(=O)c1ccccc1C(=O)OCC [diethyl phthalate]
interaction with the olfactory receptor [2]: interact
interaction with the olfactory receptors [3]: interact with the olfactory receptors
interaction with the olfactory receptor [5]: interact

C=CC(C)(O)CCC=C(C)C (stereo not drawn) [linalool]
Repellency %, R % ([1]; Day 0): 60.7%
sec. on T surface [1, 7]: 59.0 s
Repellency %, R % ([1]; Day 1): 25.9%
sec. on T surface ([1]; Day 1): 111.2 s
interaction with the olfactory receptor [2]: interact
interaction with the olfactory receptors [3]: interact with the olfactory receptors
change in intracellular Ca^2+ levels (340/380 fluorescence ratio) [4]: calcium mobilization
interaction with the olfactory receptor [5]: interact

C=CC(C)(CCC=C(C)C)OC(=O)c1ccccc1N (stereo not drawn) [linalyl anthranilate]
Repellency %, R % ([1]; Day 0): 69.2%
sec. on T surface [1, 7]: 46.2 s
Repellency %, R % ([1]; Day 1): 30.7%
sec. on T surface ([1]; Day 1): 104.6 s
interaction with the olfactory receptor [2]: interact
interaction with the olfactory receptors [3]: interact with the olfactory receptors
change in intracellular Ca^2+ levels (340/380 fluorescence ratio) [4]: calcium mobilization
interaction with the olfactory receptor [5]: interact

Cc1ccc(C(C)C)cc1 [p-cymene]
Repellency %, R % ([1]; Day 0): 42.5%
sec. on T surface [1, 7]: 86.2 s
Repellency %, R % ([1]; Day 1): 10.9%
sec. on T surface ([1]; Day 1): 133.6 s
interaction with the olfactory receptor [2]: interact
interaction with the olfactory receptors [3]: interact with the olfactory receptors
change in intracellular Ca^2+ levels (340/380 fluorescence ratio) [4]: calcium mobilization
interaction with the olfactory receptor [5]: interact

C=C(C)[C@@H]1CC=C(CO)CC1 [perillyl alcohol]
change in intracellular Ca^2+ levels (340/380 fluorescence ratio) [4]: calcium mobilization

O=Cc1ccc2c(c1)OCO2 [piperonal]
Repellency %, R % ([1]; Day 0): 37.6%
sec. on T surface [1, 7]: 93.6 s
Repellency %, R % ([1]; Day 1): 16.1%
sec. on T surface ([1]; Day 1): 125.8 s
interaction with the olfactory receptor [2]: interact
interaction with the olfactory receptors [3]: interact with the olfactory receptors
change in intracellular Ca^2+ levels (340/380 fluorescence ratio) [4]: decreases the intracellular Ca^2+ levels
interaction with the olfactory receptor [5]: interact

OCc1ccc2c(c1)OCO2 [piperonyl alcohol]
interaction with the olfactory receptor [2]: interact
interaction with the olfactory receptors [3]: interact with the olfactory receptors
change in intracellular Ca^2+ levels (340/380 fluorescence ratio) [4]: calcium mobilization
interaction with the olfactory receptor [5]: interact

NCc1ccc2c(c1)OCO2 [piperonyl amine]
Repellency %, R % ([1]; Day 0): 48.3%
sec. on T surface [1, 7]: 77.6 s
Repellency %, R % ([1]; Day 1): 25.9%
sec. on T surface ([1]; Day 1): 111.2 s
interaction with the olfactory receptor [2]: interact
interaction with the olfactory receptors [3]: interact with the olfactory receptors
change in intracellular Ca^2+ levels (340/380 fluorescence ratio) [4]: calcium mobilization
interaction with the olfactory receptor [5]: interact

C=C[C@H]1C[N@@]2CC[C@H]1C[C@H]2[C@H](O)c1ccnc2ccc(OC)cc12 [quinine]
change in intracellular Ca^2+ levels (340/380 fluorescence ratio) [4]: calcium mobilization

O=C1C=CC(=O)C=C1 [quinone]
interaction with the olfactory receptor [2]: interact
interaction with the olfactory receptors [3]: interact with the olfactory receptors
interaction with the olfactory receptor [5]: interact

C=C1CCC2(C(C)C)CC12 (stereo not drawn) [sabinene]
repellency [1]: display repellency
interaction with the olfactory receptor [2]: interact
interaction with the olfactory receptors [3]: interact with the olfactory receptors
change in intracellular Ca^2+ levels (340/380 fluorescence ratio) [4]: calcium mobilization
interaction with the olfactory receptor [5]: interact

C/C=C/c1ccc(OC)cc1 [t-anethole]
interaction with the olfactory receptor [2]: interact
interaction with the olfactory receptors [3]: interact with the olfactory receptors
interaction with the olfactory receptor [5]: interact

CC1=CCC2CC1C2(C)C (stereo not drawn) [α-pinene]
Repellency %, R % ([1]; Day 0): 48.4%
sec. on T surface [1, 7]: 77.4 s
Repellency %, R % ([1]; Day 1): 07.2%
sec. on T surface ([1]; Day 1): 139.2 s
interaction with the olfactory receptor [2]: interact
interaction with the olfactory receptors [3]: interact with the olfactory receptors
change in intracellular Ca^2+ levels (340/380 fluorescence ratio) [4]: calcium mobilization
interaction with the olfactory receptor [5]: interact

CC1=CCC(C(C)(C)O)CC1 (stereo not drawn) [α-terpineol]
Repellency %, R % ([1]; Day 0): 26.9%
sec. on T surface [1, 7]: 109.6 s
interaction with the olfactory receptor [2]: interact
interaction with the olfactory receptors [3]: interact with the olfactory receptors
interaction with the olfactory receptor [5]: interact

CC(C)[C@]12CC(=O)[C@H](C)[C@H]1C2 [α-thujone]
repellency [1]: display repellency
interaction with the olfactory receptor [2]: interact
interaction with the olfactory receptors [3]: interact with the olfactory receptors
change in intracellular Ca^2+ levels (340/380 fluorescence ratio) [4]: calcium mobilization
interaction with the olfactory receptor [5]: interact

l-carvone
change in intracellular Ca^2+ levels (340/380 fluorescence ratio) [4]: calcium mobilization

lindenol [listing 1 of 2 here]
Repellency %, R % ([1]; Day 0): 04.0%
sec. on T surface [1, 6]: 144.2 s
interaction with the olfactory receptor [2]: interact
interaction with the olfactory receptor [5]: interact

lindenol [listing 2 of 2 here]
sec. on T surface [1, 7]: 144.2 s
interaction with the olfactory receptors [3]: interact with the olfactory receptors
change in intracellular Ca^2+ levels (340/380 fluorescence ratio) [4]: calcium mobilization

terpinene 900 [listing 1 of 2 here]
interaction with the olfactory receptor [2]: interact
interaction with the olfactory receptor [5]: interact

terpinene 900 [listing 2 of 2 here]
interaction with the olfactory receptors [3]: interact with the olfactory receptors
change in intracellular Ca^2+ levels (340/380 fluorescence ratio) [4]: calcium mobilization
